According to patent US9487557B2, “Peptides for management of lactation” (MILEUTIS LTD., priority 2012, dated 2016):
Square brackets hold non-standard residues; d marks the D form. Ends that are not written are not given here. pS = N[C@@H](COP(=O)(O)O)C(=O)O

Legend:
Type in all cases: in vivo
[1] = system: mammary gland of lactating dairy cows; experiment: Field study of involution induction: change of pH in milk samples after a single intramammary infusion at dry-off; details: for Changes of pH in milk samples, Day 1, Mean / Changes of pH in milk samples, Day 2, Mean / Changes of pH in milk samples, Day 3, Mean: difference in pH vs Day 0, single intramammary infusion, peptides 4 mg in 10 ml, casein hydrolyzate 20 ml; for Changes of pH in milk samples, Day 1, Mean: Day 1 post treatment; for Changes of pH in milk samples, Day 2, Mean: Day 2 post treatment; for Changes of pH in milk samples, Day 3, Mean: Day 3 post treatment
Description: (§1) A filed study was performed to assess the potential of a single intramammary dose of the synthetic peptides of the invention administered at dry (i.e. at the day in which milking is ceased), to induce rapid involution.
(§2) Total of 107 dairy cows were enrolled to the study, of which 45 received treatment and 62 served as a control. All cows were dairy cows at their first or further lactation that stand the inclusion/exclusion criteria. The study was a controlled blinded case-control study.
(§3) Case subjects received one dose by intramammary infusion of a particular peptide. Controls were lactating cows that received the following products by intramammary administration:
(§4) Five groups of 9 cows (total of 36 udder quarters per group) were scheduled as case groups. Each group was treated with one out of the five (5) phosphopeptides described in Example 1 hereinabove (P241210-01-01; 03; 05; 07 and 09). The peptides were administered once via intramammary infusion of 10 ml containing 4 mg peptide.
(§5) Set one: Five groups of 9 cows (total of 36 udder quarters per group) were scheduled as a first control set. Each group was treated with one out of the five (5) dephosphorylated peptides described in Example 1 hereinabove (P241210-01-02; 04; 06; 08 and 10). The peptides were administered once via intramammary infusion of 10 ml containing 4 mg peptide.
(§6) (i) Eleven cows (total of 44 udder quarters) treated with casein hydrolyzate (20 ml) administered once via intramammary infusion of 20 ml (around 1.8 mg/ml casein phosphopeptide (CPP), total=36 mg CPP for 20 ml)
(§7) All treatments (peptides, casein hydrolyzate and saline) were administered at the time point scheduled for cessation of milking (dry off). The day of administration was set as Day 0.
(§8) Sets of aseptic milk samples were collected in two separate vials once a day in the milking facility after the morning milking, on Day 0 and in post-treatment days 1, 2 and 3. The sampling time points were set to up to three days after treatment administration to ensure sufficient milk secretion for the measurements of all involution parameters. The volume of the samples was between 30 to 50 ml. The pH of the milk sample was measured in situ using a Cyberscan pH11 meter (Eutech Instruments, Singapore). The apparatus was calibrated each day by immersing the receptor in standard buffers of pH 7.0 and pH 4.01. Measurements were taken twice for each sample obtained from a mammary gland, with an interval of 30 seconds between measurements. pH measurement was repeated on-site by using the same sample vial. Before double-pH measurement, the milk sample vials were gently shaken three (3) times. After the pH measurement, the milk samples vials were kept in cool storage with a preservative product (Broad Spectrum Microtabs II—Bronopol and Metamycin—D&F Control System Inc., Two Technology Way, Norwood Mass. 02062 USA).
(§9) Endpoint Measures: pH, lactose and somatic cell counts (SCC) values from milk secretions at day 0 and during three (3) days post-treatment were taken. Results are described as the difference between the measures at each of the 3 days post treatment and the measured level at Day 0.
Table 2 below summarizes the effect of the peptides examined and of casein hydrolyzate (CNH) on the pH of milk samples taken 1, 2 and 3 days after the one-dose treatment with each peptide or CNH. The results are presented as the difference in pH value between each of the days post treatment and Day 0 (before treatment).

[2] = system: mammary gland of lactating dairy cows; experiment: Field study of involution induction: change in lactose content of milk samples after a single intramammary infusion at dry-off; details: for Changes in Lactose content in milk samples, Day 1, Mean / Changes in Lactose content in milk samples, Day 2, Mean / Changes in Lactose content in milk samples, Day 3, Mean: difference in lactose concentration vs Day 0, single intramammary infusion, peptides 4 mg in 10 ml, casein hydrolyzate 20 ml; for Changes in Lactose content in milk samples, Day 1, Mean: Day 1 post treatment; for Changes in Lactose content in milk samples, Day 2, Mean: Day 2 post treatment; for Changes in Lactose content in milk samples, Day 3, Mean: Day 3 post treatment
Description: as §1, §2, §3, §4, §5, §6, §7, §8
Lactose values in the milk samples were determined at the Central Laboratory of Milk Quality, Caesaria Industrial Park, Israel, according to ISO 2266211DF 198:2007.
Data from six quarters were excluded from the analysis of lactose changes. Data from one of those quarters were omitted due to a missing initial value. For the other five quarters, lactose concentrations taken during the three follow-up days could not be analyzed due to a rapid mammary involution process, resulting in non-sufficient milk sample for lactose analysis.
as §9
One of the most significant outcomes of involution in terms of milk composition is a reduction in lactose content. Thus, lactose concentration was also measured in the milk samples taken before and after peptide or CNH administration as described for the pH measurements hereinabove. […]

[3] = system: mammary gland of lactating dairy cows; experiment: Field study of involution induction: change in somatic cell counts in milk samples after a single intramammary infusion at dry-off; details: for Changes in Somatic Cell Counts in milk samples, Day 1, Mean / Changes in Somatic Cell Counts in milk samples, Day 2, Mean / Changes in Somatic Cell Counts in milk samples, Day 3, Mean: change vs Day 0, calculated from log transformation of raw data, single intramammary infusion, peptides 4 mg in 10 ml, casein hydrolyzate 20 ml; for Changes in Somatic Cell Counts in milk samples, Day 1, Mean: Day 1 post treatment; for Changes in Somatic Cell Counts in milk samples, Day 2, Mean: Day 2 post treatment; for Changes in Somatic Cell Counts in milk samples, Day 3, Mean: Day 3 post treatment
Description: as §1, §2, §3, §4, §5, §6, §7, §8
Somatic cell count was also determined in milk samples by Fossomatic 360 (Foss Electric, Hillerod, Denmark), and based on guidelines from the USA National Mastitis Council. Laboratory Handbook on Bovine Mastitis. 1999. Ed. National Mastitis Council, Verona, Wis. 53593 USA.
as §9
Additional parameter that may be used to establish the progression of the involution process is the presence of somatic cells within the milk. The increase in cell count within the milk is the result of high degree of apoptotic epithelial cell death associated with involution. […] The results presented in the table were calculated from log transformation of the raw data that were highly variable.

Substance	Changes of pH in milk samples, Day 1, Mean [1]	Changes of pH in milk samples, Day 2, Mean [1]	Changes of pH in milk samples, Day 3, Mean [1]	Changes in Lactose content in milk samples, Day 1, Mean [2]	Changes in Lactose content in milk samples, Day 2, Mean [2]	Changes in Lactose content in milk samples, Day 3, Mean [2]	Changes in Somatic Cell Counts in milk samples, Day 1, Mean [3]	Changes in Somatic Cell Counts in milk samples, Day 2, Mean [3]	Changes in Somatic Cell Counts in milk samples, Day 3, Mean [3]	effect on the milk pH, in words ([1]; compared with the other peptides and casein hydrolyzate, particularly first 2 days after treatment)	effect on the reduction of lactose content, in words ([2]; all time points examined, compared with CNH)	induction of involution, overall conclusion in words ([3]; conclusion from pH, lactose and somatic cell count results)
ESLSSSEE-NH2 [D]	0.000	−0.027	0.013	−0.749	−1.387	−0.090	0.387	1.023	−0.249			
Glu-Ser(P)-Leu-Ser(P)-Ser(P)-Ser(P)-Glu-Glu-NH2 (E[pS]L[pS][pS][pS]EE-NH2; N-terminus assumed; SMILES CC(C)C[C@H](NC(=O)[C@H](COP(=O)(O)O)NC(=O)[C@@H](N)CCC(=O)O)C(=O)N[C@@H](COP(=O)(O)O)C(=O)N[C@@H](COP(=O)(O)O)C(=O)N[C@@H](COP(=O)(O)O)C(=O)N[C@@H](CCC(=O)O)C(=O)N[C@@H](CCC(=O)O)C(N)=O) [D(p), casein-derived peptide, positive control]	0.027	−0.018	0.077	−0.431	−1.460	−2.180	0.383	1.181	1.998			
KKSLSS-NH2 [A]	0.048	−0.002	0.072	−0.463	−1.268	−1.773	0.911	1.571	2.090			
KSSSEE-NH2	0.047	−0.028	0.115	−0.368	−1.531	−1.675	−0.186	0.843	1.492			
Lys-Lys-Ser(P)-Leu-Ser(P)-Ser(P)-Ser(P)-NH2 (KK[pS]L[pS][pS][pS]-NH2; N-terminus assumed; SMILES CC(C)C[C@H](NC(=O)[C@H](COP(=O)(O)O)NC(=O)[C@H](CCCCN)NC(=O)[C@@H](N)CCCCN)C(=O)N[C@@H](COP(=O)(O)O)C(=O)N[C@@H](COP(=O)(O)O)C(=O)N[C@@H](COP(=O)(O)O)C(N)=O) [A(p)]	0.016	0.020	0.118	−0.462	−1.364	−1.771	0.592	1.212	1.829			
Lys-Lys-Ser(P)-Ser(P)-NH2 (KK[pS][pS]-NH2; N-terminus assumed; SMILES NCCCC[C@H](NC(=O)[C@@H](N)CCCCN)C(=O)N[C@@H](COP(=O)(O)O)C(=O)N[C@@H](COP(=O)(O)O)C(N)=O) [C(p)]	0.066	0.046	0.119	−0.509	−1.427	−0.345	−0.129	0.961	0.195			
Lys-Lys-Ser(P)-Ser(P)-Ser(P)-NH2 (KK[pS][pS][pS]-NH2; N-terminus assumed; SMILES NCCCC[C@H](NC(=O)[C@@H](N)CCCCN)C(=O)N[C@@H](COP(=O)(O)O)C(=O)N[C@@H](COP(=O)(O)O)C(=O)N[C@@H](COP(=O)(O)O)C(N)=O) [B(p)]	0.171	0.165	0.163	−1.250	−2.013	−2.521	3.129	3.099	3.451	showed the most significant effect on the milk pH	higher effect on the reduction of lactose content compared to the effect of CNH	highly effective in inducing involution
Lys-Lys-Ser-Ser-NH2 [C]	0.034	−0.006	−0.001	−0.846	−1.554	−0.387	0.511	1.194	0.650			
Lys-Lys-Ser-Ser-Ser-NH2 [B]	−0.015	−0.019	0.065	−0.320	−0.969	−1.412	0.109	0.664	1.191			
